Common to all, as to assay type: in vivo
The test system of test [1] is velvetleaf (Abutilon theophrasti). As to the kind of experiment: Test G Post-Emergence Protocol. The following applies: Abutilon theophrasti, post-emergence, 312 h, read-out: Velvetleaf damage rating. The protocol: (§1) Seeds of corn (Zea mays), giant foxtail (Setaria faberi), barnyardgrass (Echinochloa crus-galli), ivy-leaved morning glory (Ipomoea hederacea), redroot pigweed (Amaranthus retroflexus) and velvetleaf (Abutilon theophrasti) were sown in standard soil in pots. After cultivation for 8 days under controlled conditions in a glasshouse (at 24/16° C., day/night; 14 hours light; 65% humidity), the plants were sprayed with an aqueous spray solution derived from the formulation of the technical active ingredient in acetone/water (50:50) solution containing 0.5% Tween 20 (polyoxyethylene sorbitan monolaurate, CAS RN 9005-64-5) to give a final dose of 15.625, 62.5 or 250 g/ha of test compound.
(§2) The test plants were then grown on under controlled conditions in a glasshouse (at 24/16° C., day/night; 14 hours light; 65% humidity) and watered twice daily. After 13 days the test was evaluated (100=total damage to plant; 0=no damage to plant). A dash (-) means no test result.

For test [2], the system named is redroot pigweed (Amaranthus retroflexus). As to the kind of experiment: Test G Post-Emergence Protocol. The following applies: Amaranthus retroflexus, post-emergence, 312 h, read-out: Pigweed, Redroot damage rating. How it is done: as §1, §2
In test [3] the test system is ivy-leaved morning glory (Ipomoea hederacea). The experiment in a line: Test G Post-Emergence Protocol. The following applies: Ipomoea, post-emergence, 312 h, read-out: Morningglory, Ivy-leaved damage rating. The protocol: as §1, §2
Test [4] concerns corn (Zea mays). The experiment in a line: Test G Post-Emergence Protocol. The following applies: Zea mays, post-emergence, 312 h, read-out: Corn damage rating. The protocol: as §1, §2
Test [5] deals with barnyardgrass (Echinochloa crus-galli). The experiment in a line: Test G Post-Emergence Protocol. The following applies: Echinochloa crus-galli, post-emergence, 312 h, read-out: Barnyardgrass damage rating. How it is done: as §1, §2
Test [6] relates to giant foxtail (Setaria faberi). The experiment in a line: Test G Post-Emergence Protocol. The following applies: Setaria faberi, post-emergence, 312 h, read-out: Foxtail, Giant damage rating. The protocol: as §1, §2
Test [7] concerns velvetleaf (Abutilon theophrasti). The experiment in a line: Test G Pre-Emergence Protocol. The following applies: Abutilon theophrasti, pre-emergence, 312 h, evaluated after 13 days. How it is done: as §1, with “one day” for “8 days”
as §2

Test [8] relates to redroot pigweed (Amaranthus retroflexus). The experiment in a line: Test G Pre-Emergence Protocol. Conditions: Amaranthus retroflexus, pre-emergence, 312 h, evaluated after 13 days. The protocol:
as §1, with “one day” for “8 days”
as §2

Test [9] deals with ivy-leaved morning glory (Ipomoea hederacea). As to the kind of experiment: Test G Pre-Emergence Protocol. The following applies: Ipomoea, pre-emergence, 312 h, 15.625 g ai/ha, evaluated after 13 days, read-out: Morningglory, Ivy-leaved damage rating (100=total damage to plant; 0=no damage to plant). The protocol: as §1, with “one day” for “8 days”
as §2

Test [10] concerns corn (Zea mays). As to the kind of experiment: Test G Pre-Emergence Protocol. Conditions: Zea mays, pre-emergence, 312 h, evaluated after 13 days. How it is done: as §1, with “one day” for “8 days”
as §2

For test [11], the system named is barnyardgrass (Echinochloa crus-galli). The experiment in a line: Test G Pre-Emergence Protocol. Conditions: Echinochloa crus-galli, pre-emergence, 312 h, evaluated after 13 days. How it is done:
as §1, with “one day” for “8 days”
as §2

In test [12] the test system is giant foxtail (Setaria faberi). As to the kind of experiment: Test G Pre-Emergence Protocol. Conditions: Setaria faberi, pre-emergence, 312 h, evaluated after 13 days. The protocol: as §1, with “one day” for “8 days”
as §2

Setting [13] is: 15.625 g ai/ha, evaluated after 13 days (100=total damage to plant; 0=no damage to plant).
The mark [14] stands for this setting: 62.5 g ai/ha, evaluated after 13 days, 100=total damage to plant, 0=no damage to plant.

Molecules are shown by their SMILES.

As for `CCOc1cc(F)cc(C2CN(C)C(=O)C2C(=O)Nc2cccc(F)c2F)c1` (centres unmarked) [Compound 1695], the pest or weed control at 15.625 g/ha in test [1] (setting [13]) came to 0%; in test [2] (setting [13]) it was 10%; in test [3] (setting [13]), 10%; in test [5] (setting [13]) it was 80%; in test [6] (setting [13]), 80%; in [7] (15.625 g ai/ha, read-out: Velvetleaf damage rating (100=total damage to plant; 0=no damage to plant)), 0%. The pest or weed control at 15.625 g/ha was determined as 0% in [8] (15.625 g ai/ha, read-out: Pigweed, Redroot damage rating (100=total damage to plant; 0=no damage to plant)); 0% in [9]; 50% in test [11] (15.625 g ai/ha, read-out: Barnyardgrass damage rating (100=total damage to plant; 0=no damage to plant)); 70% in test [12] (15.625 g ai/ha, read-out: Foxtail, Giant damage rating (100=total damage to plant; 0=no damage to plant)). The pest or weed control at 62.5 g/ha in test [1] (setting [14]) is 10%; in test [2] (setting [14]) it was 10%; in [3] (setting [14]), 20%; in [5] (setting [14]), 80%; in test [6] (setting [14]) it was 80%; in [7] (62.5 g ai/ha, 100=total damage to plant, 0=no damage to plant, read-out: Velvetleaf damage rating) it was 0%. Besides, the pest or weed control at 62.5 g/ha in [8] (62.5 g ai/ha, 100=total damage to plant, 0=no damage to plant, read-out: Pigweed, Redroot damage rating) is 0%; in [11] (62.5 g ai/ha, 100=total damage to plant, 0=no damage to plant, read-out: Barnyardgrass damage rating), 90%; in test [12] (62.5 g ai/ha, 100=total damage to plant, 0=no damage to plant, read-out: Foxtail, Giant damage rating) it was 90%. For the same compound, the plant injury at 15.625 g/ha came out at 30% with corn (Zea mays) [4] (setting [13]) and 10% with corn (Zea mays) [10] (15.625 g ai/ha, read-out: Corn damage rating (100=total damage to plant; 0=no damage to plant)). The plant injury at 62.5 g/ha turned out to be 70% in the test with corn (Zea mays) [4] (setting [14]) and 40% with corn (Zea mays) [10] (62.5 g ai/ha, 100=total damage to plant, 0=no damage to plant, read-out: Corn damage rating).

Source of the values: patent US12077503B2, “Substituted cyclic amides and their use as herbicides” (FMC CORPORATION, priority 2015, dated 2024).
